Test results published in PMC11346426, “1-Deoxy-D-xylulose 5-phosphate reductoisomerase as target for anti Toxoplasma gondii agents: crystal structure, biochemical characterization and biological evaluation of inhibitors” (Biochemical Journal, 2024).
Like-named read-outs stand apart in the source and are kept apart here.

B1: TgDXR (Toxoplasma gondii ME49) (protein)
chain: PSTRVKRLVVLGSTGSIGKSTLEIAREFPDIFQIVGLAAGGSNLALLAEQVAAFRPQYVYLGDSSKVAELQERLNDHERSAAFPRPRLLLGDEGLAELACVPNYDILVSAIVGFKGVLPTLKALEAGKDVALANKEALVAAGPVFRCLLSTRGLLYGDQERQDRHERSHRSGDQEGDREEDTDGDRREECDKRRAKAGQKCGLLLPVDSEHSAIFQALQGVPASCYPPRKLLLTASGGPFRGRTRDELEQVTLESALKHPKWSMGAKITIDSATLMNKGLEVIEAHFAFGCPYSSIEVLVHPQAVIHSAVELRDGATLAQLGLPDMKLPIAYALTWPHRLAAPWSAGVDLTREGNLTFEKPDLNTFGCLGLAYEAGERGGVAPACLNAANEVAVERFRNKEIGFVDIEDTVRHVMALQERERDNFSDVSLQDVFDADHWARTAARAFKPRK

Legend:
[1] = MTT cytotoxicity assay on host cells; type: cell-based; conditions: human, Hs27 fibroblasts, 24 h incubation
Method: The method based on the reduction of the tetrazolium dye MTT [3-(4,5-dimethylthiazole-2-yl)-2,5-diphenyltetrazolium bromide] to its purple insoluble formazan by mitochondrial NAD(P)H-dependent cellular oxidoreductase enzymes in living cells, previously described by Mosmann was employed to assess the cytotoxic effects of the examined DXR inhibitors on the host cells, as previously described [[78–80]]. Briefly, Hs27 cells were cultured in 96-well plates at a concentration of 5 × 10^4/well in (IMDM, Gibco–Thermo Fisher Scientific, Waltham, MA, U.S.A., #12440053) with a volume of 100 µl per well and incubated at 37°C overnight. Then, eleven two-fold serially diluted concentrations of the investigated compounds ranging from […] were prepared and added to each well. Hs27 cells were then incubated for 24 h in humidified atmosphere of 5% CO2 in air. Controls included wells containing medium alone without cells (blank), untreated Hs27 cells, DMSO (negative control) and staurosporine (0.031, 0.062, 0.125, 0.25, 0.5, 1 µM) (Merck, Darmstadt, Germany, #S4400) as apoptosis inducer. After incubation, the culture media was replaced with 100 µl of DMEM medium without phenol (Gibco-Thermo Fisher Scientific, Waltham, MA, U.S.A., #21041025) plus 10% heat-inactivated (FBS Standard, South America origin, FBS, 2 µm sterile filtered, PAN-Biotech, Aidenbach, Germany, #P30-3306), and […] 2-mercaptoethanol (Gibco-Thermo Fisher Scientific, Waltham, MA, U.S.A., #21985023). Thereafter, the MTT reagent was added to each well and analysis conducted following the manufacture instructions (CyQuant MTT Cell Viability Assay Kit, Thermo Fisher Scientific, Waltham, MA, U.S.A., #V-13154). The absorbance was measured at 570 nm on an ELISA microplate reer (TECAN Sunrise, Männedorf, Switzerland) and the percentage of viability was calculated when compared with the untreated control. The data set was subsequently adjusted by applying blank correction. Cell viability values expressed as percentage of the negative control value were calculated as follows: %Cellviability=meanabsorbanceoftreatedwells−blank/meanabsorbanceofnegativecontrol−blank×100. The cytotoxicity of each compound was expressed as half maximal cytotoxic concentration (CC50 values) against Hs27 cells. These values were calculated by a non-linear regression using GraphPad PRISM™ statistics software package (Version 9.5.1; San Diego, CA, U.S.A.) plotting the percentage viability against the log of compound concentrations.

[2] = tested on: T. gondii ME49 tachyzoites; assay: T. gondii in vitro growth assay ([3H]-uracil incorporation); type: cell-based, Toxoplasma gondii; conditions: for IC50: Toxoplasma gondii, T. gondii type II ME49 strain in Hs27 host cells, n = 6; for activity against T. gondii growth (in words): T. gondii type II ME49 strain, [3H]-uracil incorporation
Method: With the aim to assess the inhibitory in vitro effect on parasite growth, T. gondii growth assays were performed as described previously [[78-80]]. Compounds, previously diluted in culture media in appropriate stock solutions, were added to confluent monolayers of Hs27 cells in 96-flat well plates at various concentrations. Then, freshly harvested tachyzoites were added to the cultures at a multiplicity of infection of 1:1 (parasite/host cell ratio). As controls, untreated and uninfected Hs27 cells, 24 h pre-stimulated and T. gondii infected cells with human interferon γ (IFN γ) (300 U/ml) (Merck, Darmstadt, Germany, #I17001) and T. gondii infected cells only were employed. After 48 h incubation, proliferating toxoplasmas were labelled with 0.3 μCi/well of tritiated uracil (^3H-U; 5 mCi, Hartmann Analytic, Braunschweig, Germany, #ART1782). After 28-30 h of incubation, plates were frozen at -20°C overnight. Cells were then thawed and harvested (Basic96 Harvester; Zinsser Analytic, Skatron Instruments, Northridge, CA, U.S.A.), purified with glass fibre filters (Printed Filtermat A 102 mm × 258 mm; PerkinElmer, Waltham, MA, U.S.A.) and dried at 130°C for 15-20 min. Dried filters were then wrapped into transparent plastic covers, dunked with 10 ml scintillation cocktail (Betaplate Scint; PerkinElmer, Waltham, MA, U.S.A., #1205-440), sealed and then loaded into metal cassettes and the incorporation of ^3H-uracil into the RNA of proliferating toxoplasmas was measured using a β-counter, a liquid scintillation counter that measure the […] (Betaplate Liquid Scintillation Counter 1205; LKB-[…], Melbourne, Australia). All data sets were normalized to 100% of the positive control. The dose-response curves of the compounds were fitted by means of the statistics software GraphPad PRISMTM (Version 9.5.1; San Diego, CA, U.S.A.). The minimal concentrations of compounds required for 50% inhibition of the parasite (IC50 values) were determined by non-linear regression analysis. Pyrimethamine was used as reference anti-toxoplasma compound.

TgDXR [3] = molecular target: T1, TgDXR (Toxoplasma gondii, UniProt S8ESX0); assay: T. gondii DXR enzyme inhibition assay (NADPH oxidation, absorption at 340 nm); type: biochemical; conditions: for Ki: Ki = IC50/(1 + [S]/Km), [S] = 100 µM DXP, Km = 30.58 µM
Method: The enzymatic assays were conducted at 30°C in 96 well plates using a total reaction volume of 150 µl containing 100 nM of purified TgDXR protein in dimeric state, 100 µM of NADPH and 4 mM of MgCl2 as cofactors, 100 µM of DXP as substrate in 50 mM HEPES buffer (pH 7.5) containing 50 µg/ml of BSA. For the screening, DXR inhibitors were tested for their inhibitory activity and their IC50 measurements at concentrations ranging from 100 µM to 3.05 nM, in dilution steps 1:2.
To optimize and to ensure the interaction of NADPH and its enzyme binding pocket, the assay solution was incubated for 10 min at 37°C. Then, the reaction was commenced with the addition of 100 µM of DXP to the complete assay mixture. The reaction was monitored by measuring the absorption at 340 nm every minute for 1 h using a microplate reader (Tecan® 200 Pro, Tecan Group, Männedorf, Switzerland). The initial velocity of the reactions were calculated, the values were then used in the software GraphPad PRISM™ (Version 9.5.1; San Diego, CA, U.S.A.) for determinations of the IC50 values.

human fibroblasts Hs27 = assay: MTT cytotoxicity assay on host cells; type: cell-based; conditions: concentration range 0.19–200 µM
TgDXR [4] = molecular target: T1, TgDXR; assay: TgDXR enzyme kinetic characterization (Michaelis-Menten); type: biochemical; conditions: 100 nM TgDXR, substrate or cofactor varied 7.8 to 500 µM; n = 8
Method: (§1) To biochemically characterize the catalytic ability of the truncated TgDXR for the conversion of DXP into MEP in the presence of the cofactors Mg^2+ and NADPH, and to determine the optimum conditions for maximum enzyme activity, the enzymatic assays were monitored at 340 nm (maximal absorbance of NADPH) in different conditions.
(§2) The enzymatic activity was evaluated in fixed conditions, using 50 mM HEPES buffer containing 50 µg/ml of bovine serum albumin (BSA) containing 100 nM of purified TgDXR protein in dimeric state. In each experimental evaluation, only one parameter was varied: either the substrate (DXP) concentration (ranging from 7.8 to 500 µM), or the cofactor NADPH (ranging from 7.8 to 500 µM), or Mg^2+ concentration (ranging from 1 to 6 mM) or the pH (ranging from 5.5 to 9) (Figure 3).
(§3) For the determination of the kinetic parameters, various concentration of the substrate DXP or NADPH were employed for the determination of the apparent Km (substrate concentration that yield a half-maximal velocity) and Vmax (maximum velocity) for the enzyme. These parameters were calculated by a non-linear regression with the software GraphPad PRISM™ (Version 9.5.1; San Diego, CA, U.S.A.) plotting the initial velocity of the reactions and using the Michaelis–Menten model (Figure 3).

[5] = substrate: CC(=O)[C@@H](O)[C@H](O)COP(=O)(O)O; assay: as above; type: biochemical, Toxoplasma gondii; conditions: other: 100 nM TgDXR, substrate or cofactor varied 7.8 to 500 µM; n = 8
Method: as §1, §2, §3

[6] = 100 nM truncated His10-TgDXR, 100 µM NADPH, 4 mM MgCl2, 100 µM DXP, pH 7.5, 30°C, n = 6, read-out: IC50 ± S.D.

Molecule	CC50 at 24 h [1]	IC50 [2]	IC50 (TgDXR [3]; [6])	Ki (TgDXR [3])	activity against T. gondii growth (in words) [2]	host cell cytotoxicity (in words) (human fibroblasts Hs27)	IC50 (TgDXR [3])	Km (TgDXR [4])	Km [5]
Cc1ccc(C(OCC(=O)N(C)O)P(=O)(O)O)cc1 (stereo not drawn) [Compound 10, ((2-(hydroxy(methyl)amino)-2-oxoethoxy)(p-tolyl)methyl)phosphonic acid]	> 200 µM	> 100 µM	7.68 ± 0.87 µM	2.51 µM					
CN(O)C(=O)COC(c1ccccc1)P(=O)(O)O (stereo not drawn) [Compound 7, ((2-(hydroxy(methyl)amino)-2-oxoethoxy)(phenyl)methyl)phosphonic acid]	> 200 µM	48.2 ± 8.56 µM	5.82 ± 1.52 µM		demonstrated activity				
CCc1nc(N)nc(N)c1-c1ccc(Cl)cc1 [Pyrimethamine, pyrimethamine, reference compound]	> 100 µM	0.22 ± 0.05 µM							
CN(O)C(=O)CSC(c1cc(F)cc(F)c1)P(=O)(O)O (stereo not drawn) [Compound 5, ((3,5-difluorophenyl)((2-(hydroxy(methyl)amino)-2-oxoethyl)thio)methyl)phosphonic acid]	> 200 µM	56 ± 6.11 µM	2.45 ± 0.54 µM	0.74 µM	demonstrated activity				
O=CN(O)CCCP(=O)(O)O [Compound 1, Fosmidomycin, reference compound]	> 200 µM	> 200 µM			no activity	did not show any detectable host cytotoxicity	1.03 ± 0.21 µM		
CN(O)C(=O)COC(c1ccc(F)c(F)c1)P(=O)(O)O (stereo not drawn) [Compound 8, ((3,4-difluorophenyl)(2-(hydroxy(methyl)amino)-2-oxoethoxy)methyl)phosphonic acid]	> 200 µM	> 100 µM	52.14 ± 0.34 µM						
CN(O)C(=O)CSC(c1ccccc1)P(=O)(O)O (stereo not drawn) [Compound 2, (((2-(hydroxy(methyl)amino)-2-oxoethyl)thio)(phenyl)methyl)phosphonic acid]	> 200 µM	> 100 µM	1.23 ± 0.12 µM	0.37 µM					
CN(O)C(=O)COC(c1ccc(Cl)c(Cl)c1)P(=O)(O)O (stereo not drawn) [Compound 9, ((3,4-dichlorophenyl)(2-(hydroxy(methyl)amino)-2-oxoethoxy)methyl)phosphonic acid]	> 200 µM	> 100 µM	2.44 ± 0.43 µM	0.74 µM					
CN(O)C(=O)CSC(c1ccc(F)c(F)c1)P(=O)(O)O (stereo not drawn) [Compound 3, ((3,4-difluorophenyl)((2-(hydroxy(methyl)amino)-2-oxoethyl)thio)methyl)phosphonic acid]	> 200 µM	14.4 ± 1.94 µM	0.64 ± 0.38 µM	0.19 µM	demonstrated activity				
CN(O)C(=O)CSC(c1ccc(Cl)c(Cl)c1)P(=O)(O)O (stereo not drawn) [Compound 4, ((3,4-dichlorophenyl)((2-(hydroxy(methyl)amino)-2-oxoethyl)thio)methyl)phosphonic acid]	> 200 µM	5.46 ± 1.22 µM	0.62 ± 0.12 µM	0.19 µM	demonstrated activity				
COc1cc(OC)cc(C(SCC(=O)N(C)O)P(=O)(O)O)c1 (stereo not drawn) [Compound 6, ((3,5-dimethoxyphenyl)((2-(hydroxy(methyl)amino)-2-oxoethyl)thio)methyl)phosphonic acid]	> 200 µM	12.5 ± 5.56 µM	3.9 ± 1.06 µM	1.18 µM	demonstrated activity				
NADPH								51.3 ± 11.8 µM	
B1									30.58 ± 6.33 µM
